Measured values from PMC12858405, “Ideal efficacy photoswitching for chromocontrol of TRPC4/5 channel functions in live tissues” (Nature Chemical Biology, 2026).

Molecular target: T1, heteromeric TRPC5:TRPC1 (Homo sapiens, UniProt Q9UL62)
T1 construct: expressed in transfected cells; host or cells: HEK293, transiently transfected
Experiment: Whole-cell recordings, HEK293 co-expressing TRPC5 and TRPC1
Assay type: cell-based
Conditions: 10 nM
From the text: Müller, Niemeyer, et al., Schaefer & Thorn-Seshold 2025: Ideal Efficacy Photoswitching of TRPC4/5 in Tissue 3.3 Activation of heteromeric TRPC4:TRPC1 and TRPC5:TRPC1
Supplementary Figure 15: Photoswitching of ionic currents through heteromeric TRPC4:TRPC1 and TRPC5:TRPC1 channel complexes. Whole cell recordings from HEK293 cells that were transiently transfected to express the indicated TRPC isoforms were obtained in the whole cell mode with a voltage and photoswitching paradigm as illustrated in (A). (B-D) Superimposed recordings of 20 consecutive sweeps are shown for cells that ony express TRPC4 or TRPC5 (left), and for cells that co-express the respective TRPC channel along with TRPC1 (right). Note the characteristic change of the current-voltage relationship with smaller inward currents and stronger outward rectification in cells that co-express TRPC1. […]
or 10 nM (all other panels). The data shown are representative for 4-12 patched cells, each.
Currents through heteromeric complexes that are composed of TRPC4:TRPC1 or TRPC5:TRPC1 subunits can be unequivocally recognized on the basis of their unique biophysical properties with smaller unitary and global inward current amplitudes and a marked outward rectification.44 We show […]
also the heteromeric complexes TRPC5:TRPC1 and TRPC4:TRPC1 that are formed upon co-expression with TRPC1 (Supplementary Fig. 15). […]

T1 sequence (Q9UL62 whole entry): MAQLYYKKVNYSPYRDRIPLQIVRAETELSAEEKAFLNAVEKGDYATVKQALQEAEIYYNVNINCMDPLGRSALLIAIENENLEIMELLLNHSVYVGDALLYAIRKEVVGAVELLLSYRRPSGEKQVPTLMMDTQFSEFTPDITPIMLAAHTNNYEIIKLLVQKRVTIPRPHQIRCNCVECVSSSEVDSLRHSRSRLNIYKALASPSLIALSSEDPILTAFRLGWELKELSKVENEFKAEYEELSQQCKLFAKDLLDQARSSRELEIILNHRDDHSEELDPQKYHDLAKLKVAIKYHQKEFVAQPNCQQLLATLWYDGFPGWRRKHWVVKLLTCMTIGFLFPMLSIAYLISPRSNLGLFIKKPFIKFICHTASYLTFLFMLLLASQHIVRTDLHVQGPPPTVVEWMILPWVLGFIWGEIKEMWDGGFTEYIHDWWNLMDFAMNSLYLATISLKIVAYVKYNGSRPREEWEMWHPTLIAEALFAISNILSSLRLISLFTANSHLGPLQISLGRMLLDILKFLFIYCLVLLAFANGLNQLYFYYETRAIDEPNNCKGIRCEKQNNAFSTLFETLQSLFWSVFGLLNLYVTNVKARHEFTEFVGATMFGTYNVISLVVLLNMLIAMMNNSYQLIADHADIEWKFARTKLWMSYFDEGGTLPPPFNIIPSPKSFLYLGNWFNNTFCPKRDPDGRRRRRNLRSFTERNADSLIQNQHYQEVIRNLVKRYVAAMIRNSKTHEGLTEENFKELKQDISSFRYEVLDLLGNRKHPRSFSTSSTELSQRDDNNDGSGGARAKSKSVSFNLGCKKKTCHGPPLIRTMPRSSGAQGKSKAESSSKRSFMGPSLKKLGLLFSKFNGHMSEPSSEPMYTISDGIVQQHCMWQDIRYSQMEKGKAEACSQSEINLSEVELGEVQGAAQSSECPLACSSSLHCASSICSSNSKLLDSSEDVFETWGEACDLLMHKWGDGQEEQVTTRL
T1 sequence (P48995 whole entry partner): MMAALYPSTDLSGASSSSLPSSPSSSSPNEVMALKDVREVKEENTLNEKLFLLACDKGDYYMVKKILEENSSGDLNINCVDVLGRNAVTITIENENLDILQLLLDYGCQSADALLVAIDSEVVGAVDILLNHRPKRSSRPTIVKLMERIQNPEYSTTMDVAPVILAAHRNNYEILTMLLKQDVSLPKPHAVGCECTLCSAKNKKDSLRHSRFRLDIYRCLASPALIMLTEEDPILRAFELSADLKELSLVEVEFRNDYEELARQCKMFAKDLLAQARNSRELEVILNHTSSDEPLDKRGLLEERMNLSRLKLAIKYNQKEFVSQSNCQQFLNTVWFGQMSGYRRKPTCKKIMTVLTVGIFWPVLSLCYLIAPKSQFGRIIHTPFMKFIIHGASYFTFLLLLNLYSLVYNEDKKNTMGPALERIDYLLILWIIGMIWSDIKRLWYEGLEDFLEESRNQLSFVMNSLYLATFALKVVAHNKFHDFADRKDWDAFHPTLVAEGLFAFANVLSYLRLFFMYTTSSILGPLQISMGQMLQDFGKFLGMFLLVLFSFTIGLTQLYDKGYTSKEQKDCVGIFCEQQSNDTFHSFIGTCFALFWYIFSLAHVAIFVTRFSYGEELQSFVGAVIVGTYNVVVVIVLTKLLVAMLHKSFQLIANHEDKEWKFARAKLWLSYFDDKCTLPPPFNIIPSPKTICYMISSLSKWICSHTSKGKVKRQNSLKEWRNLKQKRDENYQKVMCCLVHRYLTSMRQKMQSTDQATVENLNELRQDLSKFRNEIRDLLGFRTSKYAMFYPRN

Row | Chromocontrol over heteromeric TRPC5:TRPC1 currents versus homomeric channels | Compound
1 | comparable chromocontrol | Cn1c(=O)n(CCCO)c(=O)c2c1nc(Oc1ccc(N=Nc3ccccc3)c(Cl)c1)n2Cc1ccc(Cl)cc1 [AzHC]
2 | comparable chromocontrol | Cn1c(=O)n(CCCO)c(=O)c2c1nc(Oc1ccc(N=Nc3ccccc3)c(OC(F)(F)F)c1)n2Cc1ccc(Cl)cc1 [AzPico]
